Results reported in patent US8871788B2, “Substituted N-alkyl and N-acyl tetrahydro-isoquinoline derivatives, preparation and therapeutic use thereof” (Sanofi, priority 2010, dated 2014).

Assays:
[1] = molecular target: Rat H3 (Rattus norvegicus, UniProt Q9QYN8); experiment: Rat H3 radioligand binding (similar procedure); conditions: rat H3, similar procedure to rhesus binding
Description: (§1) Rhesus H3 radioligand binding assay was performed using rhesus H3 receptor membranes (prepared as described above), [3H]-Methylhistamine (Perkin Elmer) and WGA SPA beads (wheat germ agglutinin scintillation proximity assay) beads (Amersham). The assay was performed in 96-well Opti-Plates (Packard). Each reaction contained 50 μl rhesus H3 membranes (20-30 μg total protein), 50 μl WGA SPA beads (0.1 μg) and 50 μl of 83Ci/mmol [^3H]-Methylhistamine (final concentration 2 nM) and 50 μl of tested compound. The compounds of this invention and/or vehicle were diluted with binding buffer from 10 mM DMSO stocks. Assay plates were sealed with TopSeal (Perkin Elmer) and mixed on shaker (25° C., 1 hour). Assay plates were read on TopCount scintillation counter (Packard). Results were analyzed by Hill transformation and Ki values were determined by Cheng-Prusoff equation. Similar procedure was employed to determine the binding data for rat.

[2] = system: Rats; experiment: Forced-Swimming Test in Rats; type: in vivo, rat; conditions: p.o. twice, 0.1, 1, and 10 mg/kg, 6-min test
Description: This example further illustrates the study of efficacy of the compounds of this invention as antidepressive agents in animal models.
The procedure was a modification of that described by Porsolt et al. (1977) Depression: a new animal model sensitive to antidepressant treatments. Nature 266:730-2. Rats were placed in individual glass cylinder (40 cm height, 18 cm diameter) containing water (22-25° C.) to a height of 15 cm. Two swimming sessions were conducted (a 15-min training session followed 24 h later by a 6-min test). After each swimming session, rats were placed under a heating lamp to avoid hypothermia. The duration of immobility was measured during the 6-min test. Example 1 of this invention was administered p.o. twice (15 min pre-test followed by first injection 24 h prior to […]) at three different dosages of 0.1, 1, and 10 mg/kg. The compound is active at all of these three dosage levels.

[3] = molecular target: T1, rhesus (Macacca Mulatta) H3 receptor (Macaca mulatta, UniProt Q865E1); experiment: Rhesus H3 [3H]-Methylhistamine radioligand binding assay (SPA); design: species or system rhesus monkey (Macacca Mulatta); conditions: [3H]-Methylhistamine 2 nM, rhesus H3 membranes, Cheng-Prusoff
T1 construct: 445 amino acid H3 receptor; expressed in transfected cells; host or cells: Flp-In T-REx 293 Cell Line (Invitrogen), pcDNA5/FRT/TO, induced with tetracycline
Description: (§2) Rhesus H3 membranes were prepared from the Flp-In T-REx 293 Cell Line (Invitrogen) stably transfected with pcDNA5/FRT/TO (Invitrogen) containing the rhesus monkey (Macacca Mulatta) 445 amino acid H3 receptor. (Genbank #AY231164). Stably transfected cultures were amplified in tissue culture flasks by standard tissue culture methods and induced to express rhesus H3 by exposure to 500 ng/ml tetracycline (Cellgro) for 24 hours. After induction, cells were dissociated from flasks utilizing Cell Stripper (Cellgro). Cells were centrifuged (1K×g, 5 min) and pellet frozen in an ethanol-dry ice bath to disrupt cell membranes. Frozen cell pellet was re-suspended in 5 mM HEPES (pH 7.4, Invitrogen) at 10 ml/1000 cm2 of harvested cells. The cell suspension was drawn through an 18 gauge needle (2-3×) followed by a 23 gauge needle (2-3×) to further disrupt cell membranes. The cell suspension was centrifuged (40K×g, 30 min). Cell membrane pellet was re-suspended in 5 mM HEPES (pH 7.4, Invitrogen) at a final protein concentration of 10 mg/ml. Rhesus H3 membranes were stored under liquid nitrogen prior to use in [3H]-Methylhistamine and GTPγS radioligand binding assays.
as §1

[4] = molecular target: T2, rhesus H3 (Macaca mulatta, UniProt Q865E1); experiment: GTPγS radioligand binding assay, rhesus H3 constitutive functional activity in cell membranes; type: biochemical, rhesus monkey (Macacca Mulatta); conditions: relative to basal levels
T2 construct: 445 amino acid H3 receptor; expressed in transfected cells; host or cells: Flp-In T-REx 293 Cell Line (Invitrogen), pcDNA5/FRT/TO, induced with tetracycline
Description: as §2

T2 sequence (Q865E1 1-445): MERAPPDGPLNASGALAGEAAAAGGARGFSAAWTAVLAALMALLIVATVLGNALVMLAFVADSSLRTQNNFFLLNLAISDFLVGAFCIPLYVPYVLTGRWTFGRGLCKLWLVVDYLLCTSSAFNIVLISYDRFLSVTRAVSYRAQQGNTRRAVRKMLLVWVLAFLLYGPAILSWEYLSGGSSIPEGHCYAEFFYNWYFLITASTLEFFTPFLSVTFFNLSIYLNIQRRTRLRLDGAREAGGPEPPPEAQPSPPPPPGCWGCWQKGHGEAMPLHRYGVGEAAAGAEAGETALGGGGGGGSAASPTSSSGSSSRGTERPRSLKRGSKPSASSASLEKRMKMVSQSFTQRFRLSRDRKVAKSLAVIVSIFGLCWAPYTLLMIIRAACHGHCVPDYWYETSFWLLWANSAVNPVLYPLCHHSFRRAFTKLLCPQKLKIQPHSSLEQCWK
T1 sequence (Q865E1 1-445): as above
Rat H3, sequence (Q9QYN8 whole entry): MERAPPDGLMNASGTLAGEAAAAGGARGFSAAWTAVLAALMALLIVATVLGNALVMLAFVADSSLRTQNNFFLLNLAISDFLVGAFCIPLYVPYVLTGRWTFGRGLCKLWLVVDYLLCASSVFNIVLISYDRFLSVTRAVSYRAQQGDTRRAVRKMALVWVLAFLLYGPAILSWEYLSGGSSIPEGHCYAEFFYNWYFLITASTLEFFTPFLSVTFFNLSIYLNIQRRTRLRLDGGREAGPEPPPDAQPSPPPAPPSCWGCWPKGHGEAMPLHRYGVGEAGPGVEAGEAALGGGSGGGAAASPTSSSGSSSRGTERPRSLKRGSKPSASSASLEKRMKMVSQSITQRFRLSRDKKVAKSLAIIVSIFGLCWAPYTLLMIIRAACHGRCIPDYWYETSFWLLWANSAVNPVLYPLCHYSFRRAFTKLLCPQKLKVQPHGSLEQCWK

SMILES	Ki [1]	activity in forced-swimming test (duration of immobility) [2]	Ki [3]	GTPγS-35 ASSAY % Inverse Agonism [4]
C[C@H]1CCCN1[C@H]1CCN(c2ccc3c(c2)CCN(C2CCOCC2)C3=O)C1 [Example 1, 6-((2S,3′S)-2-Methyl-[1,3′]bipyrrolidinyl-1′-yl)-2-(tetrahydro-pyran-4-yl)-3,4-dihydro-2H-isoquinolin-1-one]	3.6 nM	active	1.2 nM	–
Cc1ccc(S(=O)(=O)N2CCc3cc(N4CC[C@H](N5CCC[C@@H]5C)C4)ccc3C2)cc1 [Example 24, 6-((2S,3′S)-2-Methyl-[1,3′]bipyrrolidinyl-1′-yl)-2-(toluene-4-sulfonyl)-1,2,3,4-tetrahydro-isoquinoline]	110 nM	–	88 nM	−33.2%
CCOC(=O)N1CCc2cc(N3CC[C@H](N4CCC[C@@H]4C)C3)ccc2C1 [Example 25, 6-((2S,3′S)-2-Methyl-[1,3′]bipyrrolidinyl-1′-yl)-3,4-dihydro-1H-isoquinoline-2-carboxylic acid ethyl ester]	75 nM	–	1.2 nM	−0.5%
C[C@H]1CCCN1[C@H]1CCN(c2ccc3c(c2)CCN(C(=O)Nc2ccc(-c4ccccc4)cc2)C3)C1 [Example 26, 6-((2S,3′S)-2-Methyl-[1,3′]bipyrrolidinyl-1′-yl)-3,4-dihydro-1H-isoquinoline-2-carboxylic acid biphenyl-4-ylamide]	330 nM	–	74 nM	−16.1%
